This test concerns the target SARS-CoV-2 3CL-protease (Severe acute respiratory syndrome coronavirus 2, UniProt P0DTD1). The test can be described thus: SARS-CoV-2 3C-Like (3CL) Protease Fluorescence Assay (FRET). As to conditions: test compounds 0-10 μM, duplicate. In kind it is biochemical.
Setting [1] is: SARS-CoV-2 3CL-protease 10 nM, read-out: IC50.

Like-named read-outs stand apart in the source and are kept apart here. Bounds are passed on as bounds.

What is called IC50 is the concentration that inhibits the measured activity by half. In the case of `CC(C)C[C@@H](C(=O)N1C[C@]2(C[C@H]1C#N)C(=O)Nc1ccccc12)N(C)C(=O)[C@H](C)NC(=O)CC(F)(F)F` [Example 266], the half-maximal inhibitory concentration (IC50) under setting [1] was less than 0.1 µM.
The same measure, in the same setting: the same measure for `CC(C)C[C@@H](C(=O)N1C[C@]2(C[C@H]1C#N)C(=O)Nc1ccccc12)N(C)C(=O)[C@H]1CC[C@H](c2ccc(F)cc2)N1C(C)C` [Example 237]: less than 0.1 µM.
Same read-out and setting: under `CCN(C(=O)[C@H](C)NC(=O)c1ccc(C(C)(C)C)cc1)[C@@H](CC(C)C)C(=O)N1C[C@]2(C[C@H]1C#N)C(=O)Nc1ccccc12` [Example 363] stands less than 0.1 µM; under `C[C@H](NC(=O)C(C)(F)F)C(=O)N(C)[C@@H](Cc1ccccc1)C(=O)N1C[C@]2(C[C@H]1C#N)C(=O)Nc1ccccc12` [Example 269], less than 0.1 µM.
Still for that read-out and setting: under `CC(C)C[C@H](NC(=O)OC1CCC1)C(=O)N[C@@H](CC(C)(C)C)C(=O)N1C[C@]2(C[C@H]1C#N)C(=O)Nc1ccccc12` [Example 250] stands less than 0.1 µM.
`CC(C)C(=O)N[C@@H](C)C(=O)N[C@@H](CC(C)(C)C)C(=O)N1C[C@]2(C[C@H]1C#N)C(=O)Nc1ccccc12` [Example 223]: under setting [1], the IC50 was less than 0.1 µM.
The same measure, in the same setting: under `C[C@H](NC(=O)c1cc(F)cc2ccccc12)C(=O)N(C)[C@@H](CC(C)(C)C)C(=O)N1C[C@]2(C[C@H]1C#N)C(=O)Nc1ccccc12` [Example 292] stands less than 0.1 µM; under `CN(C(=O)[C@@H]1C[C@@H](C(F)(F)F)CN1)[C@@H](CC(C)(C)C)C(=O)N1C[C@]2(C[C@H]1C#N)C(=O)Nc1ccccc12` [Example 229], less than 0.1 µM.
On the same count and under the same terms, the same measure for `CC(C)(C)C[C@H](NC(=O)[C@@H](Nc1ccc(F)cc1F)C1CC1)C(=O)N1C[C@]2(C[C@H]1C#N)C(=O)Nc1ccccc12` [Example 341]: less than 0.1 µM; for `CC(C)N1[C@H](C(=O)N(C)[C@@H](CC(C)(C)C)C(=O)N2C[C@]3(C[C@H]2C#N)C(=O)Nc2ccccc23)CC[C@@H]1C(F)(F)F` [Example 235]: 0.1 to 1 µM; for `CC(C)N1c2ccccc2C[C@H]1C(=O)N(C)[C@@H](CC(C)(C)C)C(=O)N1C[C@]2(C[C@H]1C#N)C(=O)Nc1ccccc12` [Example 184]: less than 0.1 µM.
In the case of `C[C@@H]1NC(=O)CCCCCCCc2ccc3c(c2)[C@@]2(C[C@@H](C#N)N(C2)C(=O)[C@H](CC(C)(C)C)NC1=O)C(=O)N3` [Example 376], the IC50 under setting [1] is more than 1 µM.
Still for that read-out and setting: under `CC(C)C[C@@H](C(=O)N1C[C@]2(C[C@H]1C#N)C(=O)Nc1ccccc12)N(C)C(=O)[C@H](C)NC(=O)C1(C(F)(F)F)CC1` [Example 297] stands less than 0.1 µM; under `C[C@H](NC(=O)c1ccc(Cl)c(Cl)c1)C(=O)N(C)[C@@H](CC(C)(C)C)C(=O)N1C[C@]2(C[C@H]1C#N)C(=O)Nc1ccccc12` [Example 212], less than 0.1 µM.
For `CC(C)C[C@@H](C(=O)N1C[C@]2(C[C@H]1C#N)C(=O)Nc1ccccc12)N(C)C(=O)[C@H](C)NC(=O)c1c(F)ccc2[nH]ccc12` [Example 185], the IC50 under setting [1] is less than 0.1 µM.
Still for that read-out and setting: the same measure for `CN(C(=O)[C@H](CC1CC1)NC(=O)C(F)(F)C(F)(F)F)[C@@H](CC1CC1)C(=O)N1C[C@]2(C[C@H]1C#N)C(=O)Nc1ccccc12` [Example 347]: less than 0.1 µM; for `CC[C@H](NC(=O)C1(F)C(F)(F)C1(F)F)C(=O)N(C)[C@@H](CC(C)C)C(=O)N1C[C@]2(C[C@H]1C#N)C(=O)Nc1ccccc12` [Example 196]: less than 0.1 µM.
Regarding `C[C@H](NC(=O)c1ccccc1-c1ccccc1)C(=O)N(C)[C@@H](CC(C)(C)C)C(=O)N1C[C@]2(C[C@H]1C#N)C(=O)Nc1ccccc12` [Example 282], the half-inhibitory concentration (IC50) under setting [1] is less than 0.1 µM.
Still for that read-out and setting: the same measure for `CC[C@H](NC(=O)c1ccc(F)cc1C(F)(F)F)C(=O)N(C)[C@@H](CC(C)C)C(=O)N1C[C@]2(C[C@H]1C#N)C(=O)Nc1ccccc12` [Example 194]: less than 0.1 µM.
As to `CC(C)CC(NC(=O)c1cnn(CC(F)(F)F)c1)C(=O)N1CC[C@H](c2ccccc2)[C@H]1C(=O)N1C[C@]2(C[C@H]1C#N)C(=O)Nc1ccccc12` (some centres unmarked) [Example 346], the half-inhibitory concentration (IC50) under setting [1] is less than 0.1 µM.
For the compound `CC(C)C[C@@H](C(=O)N1C[C@]2(C[C@H]1C#N)C(=O)Nc1ccc(Cl)cc12)N(C)C(=O)[C@H](C)NC(=O)C(F)(F)C(F)(F)F` [Example 168], the IC50 under setting [1] was less than 0.1 µM.
`CC[C@H](NC(=O)C(F)(F)C(F)(F)C(F)(F)F)C(=O)N(C)[C@@H](CC(C)C)C(=O)N1C[C@]2(C[C@H]1C#N)C(=O)Nc1ccccc12` [Example 201]: the IC50 (IC50, SARS-CoV-2 3CL-protease 10 nM) was less than 0.1 µM.
Turning to `CC(C)(C)C[C@H](NC(=O)[C@H](CC1CC1)NC(=O)C12CC3CC(CC(C3)C1)C2)C(=O)N1C[C@]2(C[C@H]1C#N)C(=O)Nc1ccccc12` [Example 319], under setting [1], the IC50 is less than 0.1 µM.
Same read-out and setting: under `[2H]C([2H])([2H])N(C(=O)[C@H](C)NC(=O)C(F)(F)F)[C@@H](CCCC)C(=O)N1C[C@]2(C[C@H]1C#N)C(=O)Nc1ccccc12` [Example 191] stands less than 0.1 µM; under `C[C@H](NC(=O)OCc1ccccc1)C(=O)N(C)[C@@H](Cc1ccccc1)C(=O)N1C[C@]2(C[C@H]1C#N)C(=O)Nc1ccccc12` [Example 274], less than 0.1 µM.
On the same count and under the same terms, the same measure for `CC(C)C[C@@H](C(=O)N1C[C@]2(C[C@H]1C#N)C(=O)Nc1ccccc12)N(C)C(=O)[C@@H]1[C@@H]2C[C@@H]2CN1C(C)C` [Example 251]: 0.1 to 1 µM; for `CC(C)C[C@@H](C(=O)N1C[C@]2(C[C@H]1C#N)C(=O)Nc1ccccc12)N(C)C(=O)[C@H](C)NC(=O)C(F)(F)CC(C)C` [Example 142]: less than 0.1 µM.
Still for that read-out and setting: under `CC(C)(C)C[C@H](NC(=O)[C@@H](Nc1cnc2ccccc2c1)C1CC1)C(=O)N1C[C@]2(C[C@H]1C#N)C(=O)Nc1ccccc12` [Example 343] stands less than 0.1 µM; under `C[C@H](NC(=O)c1cc(F)c2nn(C3CC3)cc2c1)C(=O)N(C)[C@@H](CC(C)(C)C)C(=O)N1C[C@]2(C[C@H]1C#N)C(=O)Nc1ccccc12` [Example 220], less than 0.1 µM.
`C[C@H](NC(=O)CCCC(F)(F)F)C(=O)N(C)[C@@H](CC(C)(C)C)C(=O)N1C[C@]2(C[C@H]1C#N)C(=O)Nc1ccccc12` [Example 264]: under setting [1], the IC50 is less than 0.1 µM.
The same measure, in the same setting: under `CN1C[C@H](C(F)(F)F)C[C@H]1C(=O)N(C)[C@@H](CC(C)(C)C)C(=O)N1C[C@]2(C[C@H]1C#N)C(=O)Nc1ccccc12` [Example 230] stands 0.1 to 1 µM.
Still for that read-out and setting: the same measure for `C[C@H](NC(=O)c1ccc(F)cc1)C(=O)N(C)[C@@H](CC(C)(C)C)C(=O)N1C[C@]2(C[C@H]1C#N)C(=O)Nc1ccccc12` [Example 224]: less than 0.1 µM; for `CC(C)(C)C[C@H](NC(=O)[C@H](CC1CC1)NC(=O)c1cnn(-c2ccc(C(F)(F)F)cc2)c1)C(=O)N1C[C@]2(C[C@H]1C#N)C(=O)Nc1ccccc12` [Example 306]: less than 0.1 µM; for `CC(C)C[C@H](C(=O)N1C[C@]2(C[C@H]1C#N)C(=O)Nc1ccccc12)n1cccc(NS(=O)(=O)C2CC2)c1=O` [Example 359]: 0.1 to 1 µM.
On the same count and under the same terms, the same measure for `C[C@H](NC(=O)c1c(F)c(F)c(F)c(F)c1F)C(=O)N(C)[C@@H](CC(C)(C)C)C(=O)N1C[C@]2(C[C@H]1C#N)C(=O)Nc1ccccc12` [Example 300]: less than 0.1 µM.
As to `C[C@H](NC(=O)c1cc(F)c(F)c(F)c1)C(=O)N(C)[C@@H](CC(C)(C)C)C(=O)N1C[C@]2(C[C@H]1C#N)C(=O)Nc1ccccc12` [Example 214], the IC50 under setting [1] is less than 0.1 µM.
On the same count and under the same terms, under `CC(C)N1CCc2cc(C(=O)N(C)[C@@H](CC(C)(C)C)C(=O)N3C[C@]4(C[C@H]3C#N)C(=O)Nc3ccccc34)[nH]c2C1` [Example 176] stands less than 0.1 µM.
On to `CCN(C(=O)[C@H](C)NC(=O)N1CCCCC1)[C@@H](CC(C)C)C(=O)N1C[C@]2(C[C@H]1C#N)C(=O)Nc1ccccc12` [Example 370], for which the IC50 under setting [1] was less than 0.1 µM.
Same read-out and setting: under `C[C@H](NC(=O)c1ccc(Cl)cc1)C(=O)N(C)[C@@H](CC(C)(C)C)C(=O)N1C[C@]2(C[C@H]1C#N)C(=O)Nc1ccccc12` [Example 211] stands less than 0.1 µM; under `CC(C)C[C@@H](C(=O)N1C[C@]2(C[C@H]1C#N)C(=O)Nc1ccccc12)n1cccc(NC(=O)C2CC2)c1=O` [Example 357], less than 0.1 µM.
Still for that read-out and setting: under `CC(C)(C)C[C@H](NC(=O)[C@H](CC1CC1)NC(=O)C1CC2CCC1C2)C(=O)N1C[C@]2(C[C@H]1C#N)C(=O)Nc1ccccc12` (some centres unmarked) [Example 318] stands less than 0.1 µM; under `CN(C(=O)[C@@H]1CC[C@H](C(F)(F)F)N1C)[C@@H](CC(C)(C)C)C(=O)N1C[C@]2(C[C@H]1C#N)C(=O)Nc1ccccc12` [Example 234], less than 0.1 µM.
Same read-out and setting: the same measure for `C[C@H](NC(=O)C1(F)C(F)(F)C1(F)F)C(=O)N(C)[C@@H](CC1CC1)C(=O)N1C[C@]2(C[C@H]1C#N)C(=O)Nc1ccccc12` [Example 195]: less than 0.1 µM; for `CC(C)(C)C[C@H](NC(=O)C(F)(F)F)C(=O)N[C@@H](CC(C)(C)C)C(=O)N1C[C@]2(C[C@H]1C#N)C(=O)Nc1ccccc12` [Example 226]: less than 0.1 µM.
For the compound `CC(C)C[C@@H](C(=O)N1C[C@]2(C[C@H]1C#N)C(=O)Nc1ccccc12)N(C)C(=O)[C@H](C)NC(=O)c1cccc(-c2ccc(F)cc2F)c1` [Example 146], the IC50 under setting [1] was less than 0.1 µM.
Same read-out and setting: the same measure for `CC(C)C[C@@H](C(=O)N1C[C@]2(C[C@H]1C#N)C(=O)Nc1ccc(Br)cc12)N(C)C(=O)[C@H](C)NC(=O)C(F)(F)C(F)(F)F` [Example 169]: less than 0.1 µM.
Still for that read-out and setting: the same measure for `C[C@H](NC(=O)C(F)(F)CCc1ccccc1)C(=O)N(C)[C@@H](CC(C)(C)C)C(=O)N1C[C@]2(C[C@H]1C#N)C(=O)Nc1ccccc12` [Example 244]: less than 0.1 µM.
On the same count and under the same terms, the same measure for `CN(C(=O)[C@@H]1C[C@@H](c2ccccc2)CN1)[C@@H](CC(C)(C)C)C(=O)N1C[C@]2(C[C@H]1C#N)C(=O)Nc1ccccc12` [Example 232]: less than 0.1 µM; for `CC(C)(C)C[C@H](NC(=O)[C@H](CC1CC1)NC(=O)c1cn(C2CC2)nn1)C(=O)N1C[C@]2(C[C@H]1C#N)C(=O)Nc1ccccc12` [Example 324]: less than 0.1 µM.
With `CC(C)C[C@@H](C(=O)N1C[C@]2(C[C@H]1C#N)C(=O)Nc1ccccc12)N(C)C(=O)[C@@H]1[C@@H]2C[C@@H]2CN1C` [Example 253], the IC50 under setting [1] is 0.1 to 1 µM.

(Values after patent US20260138988A1, “Spiropyrrolidine Derived Antiviral Agents” (Enanta Pharmaceuticals, Inc., priority 2021, published 2026).)
